From the supplement of paper PMC13380429

Tests used:
Details in all cases: 72 h
[1] = test system: Vero E6; test: cell viability relative to DMSO; higher = less toxic
[2] = test system: U2OS; test: as above
[3] = test system: HepG2; test: as above
[4] = test system: Caco-2; test: as above
[5] = test system: Calu-3; test: as above
[6] = test system: Vero E6; test: relative viability EC50 (midpoint between 100% and the lowest measured viability); higher = less toxic
[7] = test system: U2OS; test: as above
[8] = test system: HepG2; test: as above
[9] = test system: Caco-2; test: as above
[10] = test system: Calu-3; test: as above
[11] = test system: Vero E6; test: drug sensitivity score (DSS) for viability; higher = more toxic; extreme values may be limits of the assay
[12] = test system: U2OS; test: as above
[13] = test system: HepG2; test: as above
[14] = test system: Caco-2; test: as above
[15] = test system: Calu-3; test: as above

Structure (SMILES) | cell viability ([1]; 1 nM) | cell viability ([1]; 10 nM) | cell viability ([1]; 100 nM) | cell viability ([1]; 1000 nM) | cell viability ([1]; 10000 nM) | cell viability ([2]; 1 nM) | cell viability ([2]; 10 nM) | cell viability ([2]; 100 nM) | cell viability ([2]; 1000 nM) | cell viability ([2]; 10000 nM) | cell viability ([3]; 1 nM) | cell viability ([3]; 10 nM) | cell viability ([3]; 100 nM) | cell viability ([3]; 1000 nM) | cell viability ([3]; 10000 nM) | cell viability ([4]; 1 nM) | cell viability ([4]; 10 nM) | cell viability ([4]; 100 nM) | cell viability ([4]; 1000 nM) | cell viability ([4]; 10000 nM) | cell viability ([5]; 1 nM) | cell viability ([5]; 10 nM) | cell viability ([5]; 100 nM) | cell viability ([5]; 1000 nM) | cell viability ([5]; 10000 nM) | relative viability EC50 [6] | relative viability EC50 [7] | relative viability EC50 [8] | relative viability EC50 [9] | relative viability EC50 [10] | drug sensitivity score [11] | drug sensitivity score [12] | drug sensitivity score [13] | drug sensitivity score [14] | drug sensitivity score [15]
c1cc(CN2CCCNCCNCCCNCC2)ccc1CN1CCCNCCNCCCNCC1 [plerixafor] | 104% | 99.1% | 104% | 101% | 100% | 101% | 99.8% | 97.9% | 97.2% | 98.1% | 92.9% | 104% | 88.4% | 106% | 96.5% | 101% | 96.1% | 97.5% | 101% | 95.2% | 90.7% | 104% | 97.3% | 94.4% | 105% | > 10 µM | > 10 µM | > 10 µM | > 10 µM | > 10 µM | 0 | 0 | 0 | 0 | 0
O=C(O)c1cccnc1 [niacin] | 99.4% | 98.7% | 96.3% | 91.1% | 101% | 93.8% | 98.2% | 95.3% | 97.1% | 102% | 113% | 105% | 114% | 97.9% | 106% | 91.6% | 96.7% | 94.2% | 103% | 103% | 86.8% | 103% | 98.9% | 109% | 99.2% | > 10 µM | > 10 µM | > 10 µM | > 10 µM | > 10 µM | 0 | 0 | 0 | 0 | 0
CC(=O)NCC(=O)N[C@H](CCC(=O)O)C(=O)O [N-acetylglycyl-D-glutamic-acid] | 109% | 99.9% | 103% | 97% | 99.6% | 102% | 102% | 97.7% | 102% | 99.4% | 110% | 95.7% | 98.6% | 102% | 100% | 91.3% | 104% | 93% | 103% | 101% | 94.5% | 106% | 98% | 93% | 95.7% | > 10 µM | > 10 µM | > 10 µM | > 10 µM | > 10 µM | 0 | 0 | 0 | 0 | 0
CN(C)C/C=C/C(=O)Nc1cc2c(Nc3ccc(F)c(Cl)c3)ncnc2cc1O[C@H]1CCOC1 [afatinib] | 101% | 93.7% | 66% | 51.7% | 3.8% | 95.8% | 100% | 93.2% | 91.1% | 13.6% | 117% | 96.1% | 104% | 93.7% | 27.6% | 109% | 90.4% | 83% | 73.4% | 46.1% | 88.7% | 57.8% | 32.1% | 28.8% | 9.1% | 0.465 µM | 2.32 µM | 2.45 µM | 0.496 µM | 0.0181 µM | 14.2 | 6.2 | 5 | 7.2 | 27.9
O=C(O)C[C@H](O)C(=O)O [malic-acid] | 98.1% | 107% | 96.5% | 100% | 95.5% | 105% | 101% | 103% | 97.6% | 101% | 101% | 95% | 94.6% | 95.2% | 95% | 93% | 91.8% | 99% | 91% | 99.8% | 102% | 108% | 92.3% | 95.2% | 95.2% | > 10 µM | > 10 µM | > 10 µM | > 10 µM | > 10 µM | 0 | 0 | 0 | 0 | 0
CCOc1cc(C(=O)N2CCC(N3CCN(C)CC3)CC2)ccc1Nc1ncc2c(n1)N(C1CCCC1)c1ccccc1C(=O)N2C [XMD17-109] | 94.3% | 97.1% | 94.4% | 62.1% | 8.8% | 99.6% | 95.6% | 101% | 89.5% | 28.4% | 101% | 105% | 94.2% | 76.9% | 25.2% | 96.1% | 104% | 99% | 81.6% | 32% | 104% | 87.2% | 99% | 99% | 4.4% | 1.21 µM | 2.01 µM | 1.45 µM | 1.48 µM | 3.09 µM | 9.5 | 5.7 | 7.2 | 6.5 | 5.5
CC(C)n1nnc2cc(C(=O)O)ccc21 [IBC-293] | 96.6% | 98.5% | 102% | 104% | 99.5% | 102% | 96% | 98.3% | 97.6% | 98.6% | 93.2% | 105% | 91% | 106% | 102% | 102% | 98% | 101% | 106% | 95.2% | 94.9% | 91% | 100% | 101% | 103% | > 10 µM | > 10 µM | > 10 µM | > 10 µM | > 10 µM | 0 | 0 | 0 | 0 | 0
O=C(O)CNC(=O)C(CS)Cc1ccccc1 (stereo not given) [thiorphan] | 107% | 95% | 94.3% | 101% | 104% | 99.4% | 103% | 98.7% | 98.7% | 96.9% | 94.2% | 90.9% | 99.7% | 92.1% | 95.7% | 107% | 99% | 86.2% | 102% | 110% | 103% | 99.5% | 98.6% | 95.5% | 114% | > 10 µM | > 10 µM | > 10 µM | > 10 µM | > 10 µM | 0 | 0 | 0 | 0 | 0
CCCCCCCCCCCCCC[C@@H](O)[C@@H](O)[C@@H](N)CO [phytosphingosine] | 98.7% | 98.2% | 95.9% | 111% | 95.2% | 101% | 100% | 98.9% | 102% | 98.3% | 91% | 92.7% | 112% | 100% | 97.9% | 115% | 102% | 87.3% | 113% | 99.5% | 103% | 101% | 98.6% | 82.3% | 103% | > 10 µM | > 10 µM | > 10 µM | > 10 µM | > 10 µM | 0 | 0 | 0 | 0 | 0
Cc1cc(OCC(=O)O)cc(C)c1Cc1ccc(O)c(C(C)C)c1 [sobetirome] | 102% | 99.3% | 87.9% | 96.4% | 85.3% | 97.5% | 99.9% | 99.5% | 99.5% | 100% | 100% | 103% | 96% | 96.2% | 85% | 102% | 95.7% | 92.1% | 94.7% | 90.5% | 102% | 96.6% | 105% | 98.7% | 101% | > 10 µM | > 10 µM | > 10 µM | > 10 µM | > 10 µM | 0.3 | 0 | 0.4 | 0 | 0
N=C(N)NC(=N)Nc1cccc(Cl)c1 [m-chlorophenylbiguanide] | 100% | 101% | 95.9% | 101% | 96.9% | 94.3% | 98.9% | 103% | 95.9% | 101% | 112% | 106% | 102% | 105% | 99.2% | 101% | 92.2% | 100% | 101% | 97.1% | 108% | 94.7% | 106% | 98% | 116% | > 10 µM | > 10 µM | > 10 µM | > 10 µM | > 10 µM | 0 | 0 | 0 | 0 | 0
COCC(=O)Nc1c(I)c(C(=O)NCC(O)CO)c(I)c(C(=O)N(C)CC(O)CO)c1I (stereo not given) [iopromide] | 100% | 104% | 93.9% | 94.9% | 104% | 99% | 101% | 99.1% | 100% | 95.1% | 98% | 89.1% | 89.1% | 85.2% | 95.6% | 93.6% | 101% | 93.7% | 98.4% | 102% | 110% | 104% | 93.1% | 94.9% | 96.1% | > 10 µM | > 10 µM | > 10 µM | > 10 µM | > 10 µM | 0 | 0 | 0 | 0 | 0
CC(=C(CCO)SSCC1CCCO1)N(C=O)Cc1cnc(C)nc1N (stereo in doubt) [fursultiamine] | 106% | 95.5% | 99.2% | 97.3% | 102% | 101% | 102% | 98.7% | 97.8% | 98.2% | 93.3% | 87.5% | 90.2% | 110% | 97.8% | 112% | 91.6% | 97.6% | 106% | 96% | 98.5% | 101% | 108% | 110% | 114% | > 10 µM | > 10 µM | > 10 µM | > 10 µM | > 10 µM | 0 | 0 | 0 | 0 | 0
CC[C@@H](CO)NCCN[C@@H](CC)CO [ethambutol] | 92.3% | 98.2% | 90.8% | 99.1% | 102% | 103% | 98% | 103% | 96.5% | 99.3% | 93.3% | 108% | 90.3% | 95.2% | 98.7% | 99.1% | 92.3% | 97.6% | 102% | 104% | 98.9% | 88.7% | 96% | 90.4% | 96.7% | > 10 µM | > 10 µM | > 10 µM | > 10 µM | > 10 µM | 0 | 0 | 0 | 0 | 0
